Experimental data reported in ChEMBL document CHEMBL5620415, “Design, synthesis and anti-hepatic fibrosis activity of novel diphenyl vitamin D receptor agonists” (Eur J Med Chem, 2023).
pIC50: −log10 of the molar value. Activity calls are given as the source filed them. No cut-off for these calls is given here.

Assays:
[1] = target: T1, Vitamin D3 receptor (Homo sapiens) (UniProt P11473); assay: Binding affinity to human full-length Vitamin D receptor assessed as relative binding affinity at 1 uM incubated for 2 hrs by fluorescence polarization based competitive binding assay relative to calcipotriol
T1 sequence (whole entry): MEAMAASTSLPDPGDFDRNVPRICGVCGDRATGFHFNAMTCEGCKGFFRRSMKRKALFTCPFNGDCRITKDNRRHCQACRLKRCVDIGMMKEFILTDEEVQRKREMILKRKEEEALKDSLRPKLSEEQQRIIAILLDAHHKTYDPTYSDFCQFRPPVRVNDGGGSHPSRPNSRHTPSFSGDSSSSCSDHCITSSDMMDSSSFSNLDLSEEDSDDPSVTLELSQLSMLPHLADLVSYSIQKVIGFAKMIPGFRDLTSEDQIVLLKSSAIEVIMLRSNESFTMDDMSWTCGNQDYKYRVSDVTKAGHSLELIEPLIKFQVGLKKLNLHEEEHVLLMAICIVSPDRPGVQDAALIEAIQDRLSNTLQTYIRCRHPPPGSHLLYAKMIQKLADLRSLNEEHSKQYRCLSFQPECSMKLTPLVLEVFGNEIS

[2] = Cytotoxicity against human LX-2 cells by CCK-8 assay; type: toxicity, cell-based
[3] = target: T1, Vitamin D3 receptor (Homo sapiens); assay: Agonist activity at Vitamin D receptor in human LX-2 cells assessed as transcriptional activity by measuring induction of CYP24A expression at 0.5 uM by RT-qPCR analysis relative to control; type: cell-based
Mus musculus [4] = assay: Anti-fibrotic effect in CCl4-induced hepatic fibrosis C57BL/6 mouse model assessed as inhibition of proliferation of fibrous tissue at 500 ug/kg, po five times a week for 2 weeks by Hematoxylin-Eosin (H&E) staining based assay; type: functional, organism-based; settings: dose 500.0 µg/kg
Mus musculus [5] = assay: Anti-fibrotic effect in CCl4-induced hepatic fibrosis C57BL/6 mouse model assessed as decrease in inflammatory cell infiltration at 500 ug/kg, po five times a week for 2 weeks by Masson's Trichrome staining based assay; type: functional, organism-based; settings: dose 500.0 µg/kg
Mus musculus [6] = assay: Anti-fibrotic effect in CCl4-induced hepatic fibrosis C57BL/6 mouse model assessed as decrease in inflammatory cell infiltration at 500 ug/kg, po five times a week for 2 weeks by Hematoxylin-Eosin (H&E) staining based assay; type: functional, organism-based; settings: dose 500.0 µg/kg
Mus musculus [7] = assay: Anti-fibrotic effect in CCl4-induced hepatic fibrosis C57BL/6 mouse model assessed as inhibition of proliferation of fibrous tissue at 500 ug/kg, po five times a week for 2 weeks by Masson's Trichrome […] staining based assay; type: functional, organism-based; settings: dose 500.0 µg/kg
Mus musculus [8] = assay: Anti-fibrotic effect in CCl4-induced hepatic fibrosis C57BL/6 mouse model assessed as reduction in hepatic fibrosis lesions at 500 ug/kg, po five times a week for 2 weeks by Masson's Trichrome staining based assay; type: functional, organism-based; settings: dose 500.0 µg/kg
Mus musculus [9] = assay: Anti-fibrotic effect in improving CCl4-induced hepatic fibrosis C57BL/6 mouse model assessed as uniform liver parenchyma at 500 ug/kg, po five times a week for 2 weeks by qualitative ultrasound imaging analysis; type: functional, organism-based; settings: dose 500.0 µg/kg
Mus musculus [10] = assay: Anti-fibrotic effect in CCl4-induced hepatic fibrosis C57BL/6 mouse model assessed as inhibition of collagen deposition at 500 ug/kg, po five times a week for 2 weeks by Hematoxylin-Eosin (H&E) staining based assay; type: functional, organism-based; settings: dose 500.0 µg/kg
Mus musculus [11] = assay: Anti-fibrotic effect in CCl4-induced hepatic fibrosis C57BL/6 mouse model assessed as inhibition of collagen deposition at 500 ug/kg, po five times a week for 2 weeks by Masson's Trichrome […] staining based assay; type: functional, organism-based; settings: dose 500.0 µg/kg
Mus musculus [12] = assay: Anti-fibrotic effect in CCl4-induced hepatic fibrosis C57BL/6 mouse model assessed as reduction the lesions at 500 ug/kg, po five times a week for 2 weeks by Hematoxylin-Eosin (H&E) staining based assay; type: functional, organism-based; settings: dose 500.0 µg/kg
Mus musculus [13] = assay: Anti-fibrotic effect in CCl4-induced hepatic fibrosis C57BL/6 mouse model assessed as reduction the lesions at 500 ug/kg, po five times a week for 2 weeks by Masson's Trichrome staining based assay; type: functional, organism-based; settings: dose 500.0 µg/kg
Mus musculus [14] = assay: Anti-fibrotic effect in improving CCl4-induced hepatic fibrosis C57BL/6 mouse model assessed as decrease in liver to kidney brightness ratio at 500 ug/kg, po five times a week for 2 weeks by qualitative ultrasound imaging analysis; type: functional, organism-based; settings: dose 500.0 µg/kg
Mus musculus [15] = assay: Anti-fibrotic effect in CCl4-induced hepatic fibrosis C57BL/6 mouse model assessed as reduction in hepatic fibrosis lesions at 500 ug/kg, po five times a week for 2 weeks by Hematoxylin-Eosin (H&E) staining based assay; type: functional, organism-based; settings: dose 500.0 µg/kg
[16] = target: T1, Vitamin D3 receptor (Homo sapiens); assay: Agonist activity at Vitamin D receptor in HEK293 cells assessed as receptor transactivation incubated for 48 hrs by dual-luciferase reporter assay; type: cell-based; settings: filed as agonist, dose 0.01-1 µM
Mus musculus [17] = assay: Anti-fibrotic effect in CCl4-induced hepatic fibrosis C57BL/6 mouse model assessed as inhibition of serum AST level at 500 ug/kg, po five times a week for 2 weeks; type: functional, organism-based; settings: dose 500.0 µg/kg
Mus musculus [18] = assay: Anti-fibrotic effect in CCl4-induced hepatic fibrosis C57BL/6 mouse model assessed as inhibition of serum ALT level at 500 ug/kg, po five times a week for 2 weeks; type: functional, organism-based; settings: dose 500.0 µg/kg
Mus musculus [19] = assay: Anti-fibrotic effect in CCl4-induced hepatic fibrosis C57BL/6 mouse model assessed as inhibition of serum total bile acid (TBA) level at 500 ug/kg, po five times a week for 2 weeks; type: functional, organism-based; settings: dose 500.0 µg/kg

| Compound | RBA [1] | pIC50 [2] | RBA ([1]; filed as agonist) | also measured |
| --- | --- | --- | --- | --- |
| OCc1ccc(/C=C/c2cccc(OCCCN3CCOCC3)c2)cc1CO | 34.1% | < 4.52 |  |  |
| O=C(O)CCCOc1cccc(COc2ccc(CO)c(CO)c2)c1 | 9.25% | < 4.52 |  |  |
| CCC(O)(CC)CCOc1cccc(/C=C/c2ccc(CO)c(CO)c2)c1 | 38.1% | < 4.52 |  |  |
| CC(C)(O)CCCOc1cccc(/C=C/c2ccc(CO)c(CO)c2)c1 |  | < 4.52 | 44.5% |  |
| CCC(O)(CC)CCCOc1cccc(CCc2ccc(CO)c(CO)c2)c1 | 28.3% | < 4.52 |  | Activity [3]: inactive |
| COC(=O)CCCOc1cccc(COc2ccc(CO)c(CO)c2)c1 | 19.6% | < 4.52 |  |  |
| CC(C)(O)CCCCOc1cccc(COc2ccc(CO)c(CO)c2)c1 | 9.25% | < 4.52 |  |  |
| CCC(O)(CC)CCCCOc1cccc(COc2ccc(CO)c(CO)c2)c1 | 35.8% | < 4.52 |  |  |
| CCn1c(C(=O)N[C@@H](C)CO)ccc1C(CC)(CC)c1ccc(OCC(O)C(C)(C)C)c(C)c1 (stereo not given in full) |  |  |  | Activity (Mus musculus [4]): Active; Activity (Mus musculus [5]): Active; Activity (Mus musculus [6]): Active; Activity (Mus musculus [7]): Active; Activity (Mus musculus [8]): Active; Activity (Mus musculus [9]): Active; Activity (Mus musculus [10]): Active; Activity (Mus musculus [11]): Active; Activity (Mus musculus [12]): Active; Activity (Mus musculus [13]): Active; Activity (Mus musculus [14]): Active; Activity (Mus musculus [15]): Active |
| O=C(CCCOc1cccc(COc2ccc(CO)c(CO)c2)c1)N1CCOCC1 | 17.9% | < 4.52 |  |  |
| CC(C)(O)CCCOc1cccc(CCc2ccc(CO)c(CO)c2)c1 | 14.4% | < 4.52 |  | Activity [3]: inactive |
| CCC(O)(CC)CCCCOc1cccc(/C=C/c2ccc(CO)c(CO)c2)c1 | 23.1% | < 4.52 |  |  |
| CCN(CC)CCCOc1cccc(/C=C/c2ccc(CO)c(CO)c2)c1 |  | < 4.52 | 42.2% |  |
| CCCCC(Oc1ccc(CO)c(CO)c1)c1cccc(OCCCC(O)(CC)CC)c1 (stereo not given) |  | < 4.52 | 42.2% |  |
| C=CCC(O)(CC=C)CCCOc1cccc(CCc2ccc(CO)c(CO)c2)c1 | 35.3% | < 4.52 |  | Activity [3]: inactive |
| CCC(O)(CC)CCCCCOc1cccc(COc2ccc(CO)c(CO)c2)c1 | 3.47% | < 4.52 |  |  |
| OCc1ccc(/C=C/c2cccc(OCCCC(O)(c3ccccc3)c3ccccc3)c2)cc1CO | 23.7% | < 4.52 |  |  |
| OCCCCOc1cccc(COc2ccc(CO)c(CO)c2)c1 |  | < 4.52 | 41.6% |  |
| CCCC(Oc1ccc(CO)c(CO)c1)c1cccc(OCCCC(O)(CC)CC)c1 (stereo not given) |  | < 4.52 | 46.2% |  |
| CCC(O)(CC)CCCCOc1ccc(/C=C/c2ccc(CO)c(CO)c2)cc1 | 31.2% | < 4.52 |  |  |
| CN1CCN(C(=O)CCCOc2cccc(COc3ccc(CO)c(CO)c3)c2)CC1 | 30.1% | < 4.52 |  |  |
| CCN(CC)CCCOc1ccc(/C=C/c2ccc(CO)c(CO)c2)cc1 |  | < 4.52 | 49.7% |  |
| CC(C)(O)CCCOc1cccc(COc2ccc(CO)c(CO)c2)c1 | 27.2% | < 4.52 |  |  |
| CCC(O)(CC)CCCCOc1ccc(CCc2ccc(CO)c(CO)c2)cc1 |  | < 4.52 | 44.5% | Activity [3]: inactive |
| CCC(O)(CC)CCCOc1cccc(C(C)Oc2ccc(CO)c(CO)c2)c1 (stereo not given) |  | < 4.52 | 45.1% |  |
| CCC(O)(CC)CCCOc1cccc(/C=C/c2ccc(CO)c(CO)c2)c1 |  | < 4.52 | 48% | Activity [16]: Dose-Dependent Effect; Activity (Mus musculus [4]): Active; Activity (Mus musculus [5]): Active; Activity (Mus musculus [6]): Active; Activity (Mus musculus [17]): Active; Activity (Mus musculus [7]): Active; Activity (Mus musculus [8]): Active; Activity ([3]; filed as agonist): Active; Activity (Mus musculus [9]): Active; Activity (Mus musculus [10]): Active; Activity (Mus musculus [11]): Active; Activity (Mus musculus [12]): Active; Activity (Mus musculus [13]): Active; Activity (Mus musculus [14]): Active; Activity (Mus musculus [15]): Active; Activity (Mus musculus [18]): Active; Activity (Mus musculus [19]): Active |
| CC(O)CCCOc1cccc(/C=C/c2ccc(CO)c(CO)c2)c1 (stereo not given) | 8.67% | < 4.52 |  |  |
